# What was measured:
# [1] = mice, oral administration, versus mice not administered; cited from earlier work
# [2] = Study on evaluation of blood renal function markers in humans (placebo-controlled, randomized, double-blind, parallel-group); format: in vivo; conditions: one capsule with 20 mg L-ergothioneine per day, oral, four weeks, week 4 minus pre-testing, versus control food group
# Description: In order to evaluate the influence of supplements containing ergothioneine on blood renal function marker levels in humans, a placebo-controlled, randomized, double-blind, parallel-group study was conducted on subjects including male and female adults (46 subjects in a test food group; 46 subjects in a control food group; 92 subjects in total). In this study, one capsule containing 20 mg ergothioneine (test food) or one capsule not containing ergothioneine (control food) was fed per day for four weeks. Blood renal function marker levels of each subject were measured for pre-testing before starting the study (before starting ingestion of the test food or control food). After ingestion of the test food or control food for four weeks, blood renal function marker levels of each subject were measured again (testing on week 4). Renal function markers used for measurement were BUN, uric acid, and creatinine. […] For each subject, the BUN level measured at the time of pre-testing was subtracted from the BUN level measured at the time of testing on week 4 ((level measured at the time of testing on week 4)—(level measured at the time of pre-testing)) to determine Δ in level (the amount of change in BUN level) (mg/dL). […] For each subject, the uric acid level measured at the time of pre-testing was subtracted from the uric acid level measured at the time of testing on week 4 ((level measured at the time of testing on week 4)−(level measured at the time of pre-testing)) to determine Δ in level (the amount of change in uric acid level) (mg/dL). […] For each subject, the creatinine level measured at the time of pre-testing was subtracted from the creatinine level measured at the time of testing on week 4 ((level measured at the time of testing on week 4)−(level measured at the time of pre-testing)) to determine Δ in level (the amount of change in creatinine level) (mg/dL). […]
structure (smiles),measurement,setting,value
C[N+](C)(C)[C@@H](Cc1c[nH]c(=S)[nH]1)C(=O)[O-] [L-ergothioneine],peritesticular fat weight,[1],lower
same,triglyceride (neutral fat) level in plasma,[1],lower
same,change in BUN level (Δ in BUN),[2],reduced
same,change in blood creatinine level (Δ in creatinine),[2],reduced
same,change in blood uric acid level (Δ in uric acid),[2],reduced
